Where two headings read alike, the source gives them in different places.
Tested on: M. mycetomatis genome strain MM55
Assay: CLSI M38-A2 based in vitro susceptibility screening (XTT or resazurin), growth at fixed concentration
Type: cell-based, Madurella mycetomatis
Conditions: Madurella mycetomatis; for Percent fungal survival at 100 µM: read-out: Percentage survival at 100um, 100 uM A (second replicate column)
[1] = mean of three, M. mycetomatis MM55, read-out: Percentage survival at 25um, 25 uM mean
[2] = replicate A, M. mycetomatis MM55, read-out: Percentage survival at 25um, 25 um A
[3] = replicate B, M. mycetomatis MM55, read-out: Percentage survival at 25um, 25 uM B
[4] = replicate C, M. mycetomatis MM55, read-out: Percentage survival at 25um, 25 uM C
[5] = mean of three, M. mycetomatis MM55, read-out: Percentage survival at 100um, 100 uM mean
[6] = replicate 1, M. mycetomatis MM55, read-out: Percentage survival at 100um, 100 uM A (first replicate column)
[7] = replicate 2, M. mycetomatis MM55
[8] = replicate 3, M. mycetomatis MM55, read-out: Percentage survival at 100um, 100 uM A (third replicate column)
[9] = mean of three replicates, read-out: Percentage survival at 25um, 25 uM mean
[10] = replicate A, read-out: Percentage survival at 25um, 25 um A
[11] = replicate B, read-out: Percentage survival at 25um, 25 uM B
[12] = replicate C, read-out: Percentage survival at 25um, 25 uM C
[13] = mean of three replicates, read-out: Percentage survival at 100um, 100 uM mean
[14] = mean of replicates, read-out: Percentage survival at 25um, 25 uM mean
[15] = mean of replicates, read-out: Percentage survival at 100um, 100 uM mean
[16] = replicate 1, read-out: Percentage survival at 100um, 100 uM A
[17] = replicate 2, read-out: Percentage survival at 100um, 100 uM A
[18] = replicate 3, read-out: Percentage survival at 100um, 100 uM A

O=c1cc(OCc2ccccc2)ccn1Cc1ccccc1 [MMV1579775]
activity at 25 µM [1]: 71.3% | activity at 25 µM [2]: 65.3% | activity at 25 µM [3]: 61.6% | activity at 25 µM [4]: 87.1% | activity at 100 µM [5]: 63.4% | activity at 100 µM [6]: 61.9% | Percent fungal survival at 100 µM [7]: 72.8% | activity at 100 µM [8]: 55.4%

Cc1onc(-c2ccccc2Cl)c1C(=O)N[C@@H]1C(=O)N2[C@@H]1SC(C)(C)[C@@H]2C(=O)O [MMV002740]
activity at 25 µM [1]: 65.2% | activity at 25 µM [2]: 60.8% | activity at 25 µM [3]: 53.9% | activity at 25 µM [4]: 80.9% | activity at 100 µM [5]: 92.7% | activity at 100 µM [6]: 88.1% | Percent fungal survival at 100 µM [7]: 77.7% | activity at 100 µM [8]: 112%

CC(C)(C)c1cc(CCC(=O)N2CCC2)cc(C(C)(C)C)c1O [MMV1229204]
activity at 25 µM [1]: 77.7% | activity at 25 µM [2]: 91.6% | activity at 25 µM [3]: 84.3% | activity at 25 µM [4]: 57% | activity at 100 µM [5]: 62.1% | activity at 100 µM [6]: 57.1% | Percent fungal survival at 100 µM [7]: 64% | activity at 100 µM [8]: 65.1%

Cc1ncc([N+](=O)[O-])n1CC(O)CN1CCOCC1 (stereo not shown) [MMV1613562]
activity at 25 µM [9]: 110% | activity at 25 µM [10]: 99.4% | activity at 25 µM [11]: 137% | activity at 25 µM [12]: 94% | activity at 100 µM [13]: 94.6% | activity at 100 µM (replicate 1, read-out: Percentage survival at 100um, 100 uM A (first replicate column)): 93.7% | Percent fungal survival at 100 µM (replicate 2): 86.5% | activity at 100 µM (replicate 3, read-out: Percentage survival at 100um, 100 uM A (third replicate column)): 104%

NC(=S)N/N=C/c1ncccc1N [MMV1580496]
activity at 25 µM (mean of replicates, MM55, read-out: Percentage survival at 25um, 25 uM mean): 67.8% | activity at 25 µM (replicate A, MM55, read-out: Percentage survival at 25um, 25 um A): 65.1% | activity at 25 µM (replicate B, MM55, read-out: Percentage survival at 25um, 25 uM B): 79% | activity at 25 µM (replicate C, MM55, read-out: Percentage survival at 25um, 25 uM C): 59.3% | activity at 100 µM (mean of replicates, MM55, read-out: Percentage survival at 100um, 100 uM mean): 44.6% | activity at 100 µM (replicate 1, MM55, read-out: Percentage survival at 100um, 100 uM A): 65.1% | activity at 100 µM (replicate 2, MM55, read-out: Percentage survival at 100um, 100 uM A): 56.6% | activity at 100 µM (replicate 3, MM55, read-out: Percentage survival at 100um, 100 uM A): 12%

NC[C@H]1OB(O)c2c(OCCCO)cccc21 [MMV1578566]
activity at 25 µM [14]: 83% | activity at 25 µM [10]: 83.4% | activity at 25 µM [11]: 92.5% | activity at 25 µM [12]: 72.9% | activity at 100 µM [15]: 97.6% | activity at 100 µM [16]: 93.8% | activity at 100 µM [17]: 96.2% | activity at 100 µM [18]: 103%

CCc1cc(CCCOc2c(C)cc(-c3noc(C(F)(F)F)n3)cc2C)on1 [MMV1634556]
activity at 25 µM [9]: 87% | activity at 25 µM [10]: 70.7% | activity at 25 µM [11]: 105% | activity at 25 µM [12]: 85.5% | activity at 100 µM (first replicate column, read-out: Percentage survival at 100um, 100 uM A): 76.5% | activity at 100 µM [13]: 73% | activity at 100 µM (second replicate column, read-out: Percentage survival at 100um, 100 uM A): 74.6% | activity at 100 µM (third replicate column, read-out: Percentage survival at 100um, 100 uM A): 68%

CCc1cc(Cc2cnc(N)nc2N)cc2c1N(C)CCC2C (stereo not shown) [MMV1582490]
activity at 25 µM [14]: 67.6% | activity at 25 µM [10]: 71.5% | activity at 25 µM [11]: 64.7% | activity at 25 µM [12]: 66.5% | activity at 100 µM [15]: 69.5% | activity at 100 µM [16]: 63.4% | activity at 100 µM [17]: 83.5% | activity at 100 µM [18]: 61.6%

O=C(Nc1ccc(Cl)c(C(F)(F)F)c1)C(CCCl)C(=O)Nc1ccc(Cl)c(C(F)(F)F)c1 [MMV1580840]
activity at 25 µM [1]: 56.9% | activity at 25 µM [2]: 58.8% | activity at 25 µM [3]: 55.1% | activity at 25 µM [4]: 56.9% | activity at 100 µM [5]: 36.8% | activity at 100 µM [6]: 0.352% | Percent fungal survival at 100 µM [7]: 58.3% | activity at 100 µM [8]: 51.8%

COc1ccc2cc3[n+](cc2c1OCCN(CCn1cncn1)Cc1ccc(F)cc1F)CCc1cc2c(cc1-3)OCO2 [MMV1593540]
activity at 25 µM [1]: 87.6% | activity at 25 µM [2]: 96.5% | activity at 25 µM [3]: 90.9% | activity at 25 µM [4]: 75.5% | activity at 100 µM [5]: 84.2% | activity at 100 µM [6]: 80.5% | Percent fungal survival at 100 µM [7]: 83.8% | activity at 100 µM [8]: 88.4%

O=C(Nc1ccccc1C(=O)O)c1cccc(Oc2ccccc2)c1 [MMV1579784]
activity at 25 µM [1]: 90.7% | activity at 25 µM [2]: 75.3% | activity at 25 µM [3]: 85.5% | activity at 25 µM [4]: 111% | activity at 100 µM [5]: 90.8% | activity at 100 µM [6]: 88.1% | Percent fungal survival at 100 µM [7]: 112% | activity at 100 µM [8]: 72.2%
